Counter-ions that a name gives are not always drawn.
Columns and labels:
[1] = tested on: mouse myopic models (−30D lens on right eye, 0D lens on left eye); experiment: Axial length measurement in lens-induced myopia mice (spectral domain optical coherence tomography); format: in vivo, mice (C57BL6/J); conditions: for myopia progression judged by axial length difference −30D vs 0D eyes: eyedrops 0.1 mg/mL once per day; for axial myopia progression judged by axial length difference −30D vs 0D eyes: Experiment 3, eyedrops 0.01% (0.01 mg/mL) once per day
Description: (§1) During the myopia induction period, eyedrops were administered once per day. Phosphate buffered saline (PBS) eyedrops were classified as a control group (Control), and α1-blocker eyedrops were classified as test groups.
(§2) The refractive index and the axial length of the mouse eyeball after three weeks were measured and the amounts of change were calculated. The refractive values were measured by using an infrared photorefractor for mice (fabricated by Prof Schaeffel of University of Tubingen). The more negative the refractive index, the more severe the myopia. The axial lengths were measured by using spectral domain optical coherence tomography (Envisu R4310, manufactured by Leica). The greater the value of the axial length, the greater the severity of myopia.
(§3) The eyedrops were administered once per day for the three weeks of the myopia induction period.
(§4) α1-blocker eyedrops having concentrations (mg of α1-blocker salt contained in 1 mL: mg/mL) of 0.001 (mg/mL), 0.01 (mg/mL), and 0.1 (mg/mL) were used as the eyedrops. The eyedrops were administered once per day for the three weeks of the myopia induction period. The control group was used with PBS eyedrops not containing an α1-blocker, and the α1-blocker eyedrops were eyedrops obtained by containing bunazosin hydrochloride at the predetermined concentrations.
(§5) The PBS (control group), bunazosin eyedrops (bunazosin of 0.01%, bunazosin hydrochloride of 0.01 mg/mL), silodosin eyedrops (silodosin of 0.01%, silodosin of 0.01 mg/mL), and tamsulosin eyedrops (tamsulosin of 0.01%, tamsulosin hydrochloride of 0.01 mg/mL) were used as the eyedrops. The eyedrops were administered once per day for the three weeks of the myopia induction period, as in Experiments 1 and 2. For the control group as well, PBS eyedrops not containing an α1-blocker were used, as in Experiments 1 and 2.

[2] = tested on: mouse myopic models (−30D lens on right eye, 0D lens on left eye); experiment: Refractive power measurement in lens-induced myopia mice (infrared photorefractor); format: in vivo, mice (C57BL6/J)
Description: as §1, §2, §3, §4, §5

[3] = cited from earlier work
[4] = Experiment 1, eyedrops 0.1 mg/mL once per day for three weeks, amount of change
[5] = Experiment 2, concentration 0.001 mg/mL
[6] = Experiment 2, concentration 0.001 mg/mL, once per day, three weeks
[7] = Experiment 2, concentration 0.01 mg/mL
[8] = Experiment 2, concentration 0.01 mg/mL, once per day, three weeks
[9] = Experiment 2, concentration 0.1 mg/mL
[10] = Experiment 2, concentration 0.1 mg/mL, once per day, three weeks
[11] = Experiment 1, eyedrops 0.1 mg/mL once per day for three weeks of myopia induction, amount of change
[12] = Experiment 1, eyedrops 0.1 mg/mL once per day, three weeks
[13] = Experiment 3, eyedrops 0.01% (0.01 mg/mL) once per day, three weeks

| SMILES | axial length, eyes with the 0D lens [1, 4] [mm] | axial length, eyes with the −30D lens [1, 4] [mm] | myopia progression judged by axial length difference −30D vs 0D eyes ([1]; Experiment 1, three weeks) | axial myopia progression judged by axial length difference −30D vs 0D eyes ([1]; three weeks) | refractive power, eyes with the −30D lens [2, 11] [D] | refractive power, eyes with the 0D lens [2, 4] [D] | myopia progression judged by refractive power difference −30D vs 0D eyes [2, 12] | myopia progression judged by refractive power difference −30D vs 0D eyes [2, 13] | solubility with respect to water [3] | further results |
| --- | --- | --- | --- | --- | --- | --- | --- | --- | --- | --- |
| CCCC(=O)N1CCCN(c2nc(N)c3cc(OC)c(OC)cc3n2)CC1 [bunazosin] | 0.187±0.019 | 0.191±0.026 | progression of myopia was suppressed | progression of axial myopia was suppressed | −0.74±4.07 | 3.65±4.72 | progression of myopia was suppressed | progression of myopia was suppressed |  | myopia progression judged by axial length [1, 5]: showed an elongation in axial length; axial length, eyes with the 0D lens [1, 6]: 0.196±0.008 mm; axial length, eyes with the −30D lens [1, 6]: 0.228±0.017 mm; myopia progression judged by axial length [1, 7]: progression of myopia was suppressed; axial length, eyes with the 0D lens [1, 8]: 0.192±0.021 mm; axial length, eyes with the −30D lens [1, 8]: 0.209±0.024 mm; myopia progression judged by axial length [1, 9]: progression of myopia was suppressed; axial length, eyes with the 0D lens [1, 10]: 0.180±0.028 mm; axial length, eyes with the −30D lens [1, 10]: 0.189±0.024 mm; myopia progression judged by refractive power [2, 5]: a sufficient myopia progression suppressing effect was not obtained; refractive power, eyes with the 0D lens [2, 6]: −0.33±3.47 D; refractive power, eyes with the −30D lens [2, 6]: −10.90±4.13 D; myopia progression judged by refractive power [2, 7]: progression of myopia was suppressed; refractive power, eyes with the 0D lens [2, 8]: −0.83±3.20 D; refractive power, eyes with the −30D lens [2, 8]: −6.92±4.08 D; myopia progression judged by refractive power [2, 9]: progression of myopia was suppressed; refractive power, eyes with the 0D lens [2, 10]: 3.19±3.76 D; refractive power, eyes with the −30D lens [2, 10]: −1.26±3.28 D |
| COc1cc2nc(N3CCN(C(=O)C4COc5ccccc5O4)CC3)nc(N)c2cc1OC (stereo not drawn) [doxazosin hydrochloride] |  |  |  |  |  |  |  |  | approximately 5 mg/mL |  |
| COc1cc2nc(N3CCN(C(=O)c4ccco4)CC3)nc(N)c2cc1OC [prazosin] |  |  |  |  |  |  |  |  | 1.4 mg/mL |  |
| C[C@H](Cc1cc2c(c(C(N)=O)c1)N(CCCO)CC2)NCCOc1ccccc1OCC(F)(F)F [silodosin] |  |  |  | progression of axial myopia was suppressed |  |  |  | progression of myopia was suppressed |  |  |
| CCOc1ccccc1OCCN[C@H](C)Cc1ccc(OC)c(S(N)(=O)=O)c1 [tamsulosin] |  |  |  | progression of axial myopia was suppressed |  |  |  | progression of myopia was suppressed |  |  |
| COc1ccccc1N1CCN(CCCNc2cc(=O)n(C)c(=O)n2C)CC1 [urapidil] | 0.217±0.014 | 0.233±0.020 | progression of myopia was suppressed |  | −5.51±6.29 | 0.33±7.07 | progression of myopia was suppressed |  | 25 mg/mL |  |

Reference: patent US20250222008A1, “EYEDROPS CONTAINING AN ALPHA1-BLOCKER FOR INHIBITING MYOPIA PROGRESSION” (TSUBOTA LABORATORY, INC., priority 2022, published 2025)
